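How tested: cells in 96-well plates exposed to compound for 48 hours at five concentrations. GI50: concentration for 50% inhibition of growth. TGI marks complete inhibition of growth.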
How the values were obtained:
Assay in all cases: growth of human tumour cells (NCI), 48 h
HCC-2998 colon = test system: HCC-2998 colon
SK-MEL-2 melanoma = test system: SK-MEL-2 melanoma
OVCAR-4 ovarian = test system: OVCAR-4 ovarian
IGROV1 ovarian = test system: IGROV1 ovarian
SK-MEL-28 melanoma = test system: SK-MEL-28 melanoma
A498 renal = test system: A498 renal
MDA-MB-231 breast = test system: MDA-MB-231 breast
OVCAR-3 ovarian = test system: OVCAR-3 ovarian
OVCAR-5 ovarian = test system: OVCAR-5 ovarian
SNB-75 CNS = test system: SNB-75 CNS
UO-31 renal = test system: UO-31 renal
NCI-H460 lung = test system: NCI-H460 lung
SF-539 CNS = test system: SF-539 CNS
MDA-MB-435 = test system: MDA-MB-435
NCI-H226 lung = test system: NCI-H226 lung
HL-60(TB) leukemia = test system: HL-60(TB) leukemia
K-562 leukemia = test system: K-562 leukemia
DU-145 prostate = test system: DU-145 prostate
NCI/ADR-RES ovarian = test system: NCI/ADR-RES ovarian
COLO 205 colon = test system: COLO 205 colon
HT29 colon = test system: HT29 colon
BT-549 breast = test system: BT-549 breast
SK-OV-3 ovarian = test system: SK-OV-3 ovarian
LOX IMVI melanoma = test system: LOX IMVI melanoma
T-47D breast = test system: T-47D breast
NCI-H522 lung = test system: NCI-H522 lung
SK-MEL-5 melanoma = test system: SK-MEL-5 melanoma
UACC-257 melanoma = test system: UACC-257 melanoma
SF-268 CNS = test system: SF-268 CNS
HCT-15 colon = test system: HCT-15 colon
M14 melanoma = test system: M14 melanoma
TK-10 renal = test system: TK-10 renal
PC-3 prostate = test system: PC-3 prostate
ACHN renal = test system: ACHN renal
SN12C renal = test system: SN12C renal
UACC-62 melanoma = test system: UACC-62 melanoma
HOP-92 NSCLC = test system: HOP-92 NSCLC
HCT-116 colon = test system: HCT-116 colon
A549 NSCLC = test system: A549 NSCLC
HS 578T breast = test system: HS 578T breast
OVCAR-8 ovarian = test system: OVCAR-8 ovarian
RXF 393 renal = test system: RXF 393 renal
EKVX NSCLC = test system: EKVX NSCLC
U251 CNS = test system: U251 CNS
MOLT-4 leukemia = test system: MOLT-4 leukemia
KM12 colon = test system: KM12 colon
CAKI-1 renal = test system: CAKI-1 renal
SNB-19 CNS = test system: SNB-19 CNS
NCI-H23 lung = test system: NCI-H23 lung
MALME-3M melanoma = test system: MALME-3M melanoma
SW-620 colon = test system: SW-620 colon
RPMI-8226 leukemia = test system: RPMI-8226 leukemia
786-0 renal = test system: 786-0 renal
MCF7 breast = test system: MCF7 breast
SF-295 CNS = test system: SF-295 CNS

Question: Which results are given for `COc1ccccc1Cn1c2c(c3c(C(=O)NCCN(C)C)c(O)ccc31)C(=O)c1ccccc1C2=O`?
Answer: TGI (HCC-2998 colon): 3.02 µM; TGI (SK-MEL-2 melanoma): 3.46 µM; TGI (OVCAR-4 ovarian): 3.04 µM; TGI (IGROV1 ovarian): 3.23 µM; TGI (SK-MEL-28 melanoma): 3.15 µM; TGI (A498 renal): 41.2 µM; TGI (MDA-MB-231 breast): 3.72 µM; TGI (OVCAR-3 ovarian): 3.36 µM; TGI (OVCAR-5 ovarian): 3.62 µM; TGI (SNB-75 CNS): 2.96 µM; TGI (UO-31 renal): 3.33 µM; TGI (NCI-H460 lung): 4.23 µM; TGI (SF-539 CNS): 3090 nM; TGI (MDA-MB-435): 3.24 µM; TGI (NCI-H226 lung): 51.5 µM; TGI (HL-60(TB) leukemia): 2780 nM; TGI (K-562 leukemia): 4 µM; TGI (DU-145 prostate): 3.31 µM; TGI (NCI/ADR-RES ovarian): 4.93 µM; TGI (COLO 205 colon): 3.19 µM; TGI (HT29 colon): 3.47 µM; TGI (BT-549 breast): 64.7 µM; TGI (SK-OV-3 ovarian): 43.4 µM

Question: How did the GI50 (LOX IMVI melanoma) turn out when `CC(C)Oc1ccc(C(=O)N[C@H](CNC(=O)CN(C)C)Cc2ccc(-c3cn4cccc([C@H](C)O)c4n3)cc2)cc1Cl` was run?
Answer: 73.6 nM

Question: What about the TGI (LOX IMVI melanoma) of the same compound?
Answer: 14.5 µM

Question: What about the GI50 (HCC-2998 colon) of the same compound?
Answer: 69.5 nM

Question: And the TGI (HCC-2998 colon)?
Answer: 17.3 µM

Question: What about the GI50 (SK-MEL-2 melanoma) of the same compound?
Answer: 43.4 nM

Question: And the TGI (SK-MEL-2 melanoma)?
Answer: 11.1 µM

Question: What about the GI50 (OVCAR-4 ovarian) of the same compound?
Answer: 316 nM

Question: What about the TGI (OVCAR-4 ovarian) of the same compound?
Answer: 18.7 µM

Question: What about the GI50 (T-47D breast) of the same compound?
Answer: 3.72 µM

Question: What about the TGI (T-47D breast) of the same compound?
Answer: 30.3 µM

Question: And the GI50 (NCI-H522 lung)?
Answer: 22.9 nM

Question: And the TGI (NCI-H522 lung)?
Answer: 69.8 nM

Question: What about the GI50 (SK-MEL-5 melanoma) of the same compound?
Answer: 330 nM

Question: What about the TGI (SK-MEL-5 melanoma) of the same compound?
Answer: 2820 nM

Question: What about the GI50 (IGROV1 ovarian) of the same compound?
Answer: 11.1 µM

Question: And the TGI (IGROV1 ovarian)?
Answer: 31 µM

Question: What about the GI50 (UACC-257 melanoma) of the same compound?
Answer: 1360 nM

Question: What about the TGI (UACC-257 melanoma) of the same compound?
Answer: 11.3 µM

Question: And the GI50 (SF-268 CNS)?
Answer: 72.7 nM

Question: What about the TGI (SF-268 CNS) of the same compound?
Answer: 20.9 µM

Question: What about the GI50 (HCT-15 colon) of the same compound?
Answer: 423 nM

Question: And the TGI (HCT-15 colon)?
Answer: 19.4 µM

Question: And the GI50 (M14 melanoma)?
Answer: 30.1 nM

Question: What about the TGI (M14 melanoma) of the same compound?
Answer: 150 nM

Question: What about the GI50 (TK-10 renal) of the same compound?
Answer: 11.8 µM

Question: And the TGI (TK-10 renal)?
Answer: 24.6 µM

Question: What about the GI50 (SK-MEL-28 melanoma) of the same compound?
Answer: 4 µM

Question: What about the TGI (SK-MEL-28 melanoma) of the same compound?
Answer: 20.3 µM

Question: And the GI50 (PC-3 prostate)?
Answer: 66.4 nM

Question: And the TGI (PC-3 prostate)?
Answer: 21.4 µM

Question: And the GI50 (A498 renal)?
Answer: 213 nM

Question: What about the TGI (A498 renal) of the same compound?
Answer: 13.9 µM

Question: What about the GI50 (MDA-MB-231 breast) of the same compound?
Answer: 44.5 nM

Question: What about the TGI (MDA-MB-231 breast) of the same compound?
Answer: 8.2 µM

Question: And the GI50 (ACHN renal)?
Answer: 6.6 µM

Question: And the TGI (ACHN renal)?
Answer: 21.8 µM

Question: And the GI50 (SN12C renal)?
Answer: 66.1 nM

Question: What about the TGI (SN12C renal) of the same compound?
Answer: 20.4 µM

Question: What about the GI50 (UACC-62 melanoma) of the same compound?
Answer: 70.6 nM

Question: And the TGI (UACC-62 melanoma)?
Answer: 24.3 µM

Question: And the GI50 (OVCAR-3 ovarian)?
Answer: 39.3 nM

Question: And the TGI (OVCAR-3 ovarian)?
Answer: 15.7 µM

Question: And the GI50 (HOP-92 NSCLC)?
Answer: 11.2 µM

Question: What about the TGI (HOP-92 NSCLC) of the same compound?
Answer: 24.3 µM

Question: And the GI50 (HCT-116 colon)?
Answer: 35.5 nM

Question: And the TGI (HCT-116 colon)?
Answer: 14.2 µM

Question: And the GI50 (OVCAR-5 ovarian)?
Answer: 77.1 nM

Question: What about the TGI (OVCAR-5 ovarian) of the same compound?
Answer: 22.2 µM

Question: And the GI50 (SNB-75 CNS)?
Answer: 22.2 nM

Question: What about the TGI (SNB-75 CNS) of the same compound?
Answer: 13.3 µM

Question: What about the GI50 (A549 NSCLC) of the same compound?
Answer: 50.7 nM

Question: What about the TGI (A549 NSCLC) of the same compound?
Answer: 22.1 µM

Question: And the GI50 (UO-31 renal)?
Answer: 2560 nM

Question: And the TGI (UO-31 renal)?
Answer: 19.1 µM

Question: And the GI50 (NCI-H460 lung)?
Answer: 36 nM

Question: What about the TGI (NCI-H460 lung) of the same compound?
Answer: 12.6 µM

Question: What about the GI50 (SF-539 CNS) of the same compound?
Answer: 32.3 nM

Question: What about the TGI (SF-539 CNS) of the same compound?
Answer: 1190 nM

Question: What about the GI50 (MDA-MB-435) of the same compound?
Answer: 29.3 nM

Question: And the TGI (MDA-MB-435)?
Answer: 12.8 µM

Question: What about the GI50 (HS 578T breast) of the same compound?
Answer: 1380 nM

Question: What about the TGI (HS 578T breast) of the same compound?
Answer: 33.4 µM

Question: What about the GI50 (NCI-H226 lung) of the same compound?
Answer: 10.9 µM

Question: And the TGI (NCI-H226 lung)?
Answer: 28.8 µM

Question: And the GI50 (OVCAR-8 ovarian)?
Answer: 67.4 nM

Question: And the TGI (OVCAR-8 ovarian)?
Answer: 26.6 µM

Question: And the GI50 (RXF 393 renal)?
Answer: 71.1 nM

Question: What about the TGI (RXF 393 renal) of the same compound?
Answer: 13.4 µM

Question: And the GI50 (EKVX NSCLC)?
Answer: 54.7 nM

Question: And the TGI (EKVX NSCLC)?
Answer: 21.6 µM

Question: And the GI50 (U251 CNS)?
Answer: 53.4 nM

Question: What about the TGI (U251 CNS) of the same compound?
Answer: 19.2 µM

Question: What about the GI50 (K-562 leukemia) of the same compound?
Answer: 37.5 nM

Question: What about the TGI (K-562 leukemia) of the same compound?
Answer: 14.7 µM

Question: What about the GI50 (MOLT-4 leukemia) of the same compound?
Answer: 44.1 nM

Question: What about the TGI (MOLT-4 leukemia) of the same compound?
Answer: 18 µM

Question: And the GI50 (KM12 colon)?
Answer: 38.1 nM

Question: And the TGI (KM12 colon)?
Answer: 18 µM

Question: What about the GI50 (CAKI-1 renal) of the same compound?
Answer: 538 nM

Question: And the TGI (CAKI-1 renal)?
Answer: 17.9 µM

Question: And the GI50 (DU-145 prostate)?
Answer: 38.5 nM

Question: And the TGI (DU-145 prostate)?
Answer: 13.1 µM

Question: And the GI50 (SNB-19 CNS)?
Answer: 62.5 nM

Question: What about the TGI (SNB-19 CNS) of the same compound?
Answer: 23.9 µM

Question: And the GI50 (NCI/ADR-RES ovarian)?
Answer: 2640 nM

Question: What about the TGI (NCI/ADR-RES ovarian) of the same compound?
Answer: 19.8 µM

Question: What about the GI50 (NCI-H23 lung) of the same compound?
Answer: 56.6 nM

Question: And the TGI (NCI-H23 lung)?
Answer: 21.5 µM

Question: And the GI50 (MALME-3M melanoma)?
Answer: 78 nM

Question: What about the TGI (MALME-3M melanoma) of the same compound?
Answer: 16.3 µM

Question: And the GI50 (COLO 205 colon)?
Answer: 39.6 nM

Question: What about the TGI (COLO 205 colon) of the same compound?
Answer: 13.2 µM

Question: And the GI50 (HT29 colon)?
Answer: 35 nM

Question: And the TGI (HT29 colon)?
Answer: 13 µM

Question: What about the GI50 (BT-549 breast) of the same compound?
Answer: 68 nM

Question: And the TGI (BT-549 breast)?
Answer: 17.6 µM

Question: And the GI50 (SW-620 colon)?
Answer: 61.3 nM

Question: And the TGI (SW-620 colon)?
Answer: 21.6 µM

Question: What about the GI50 (RPMI-8226 leukemia) of the same compound?
Answer: 39.9 nM

Question: And the TGI (RPMI-8226 leukemia)?
Answer: 19.8 µM

Question: What about the GI50 (SK-OV-3 ovarian) of the same compound?
Answer: 69.4 nM

Question: And the TGI (SK-OV-3 ovarian)?
Answer: 22.9 µM

Question: And the GI50 (786-0 renal)?
Answer: 57.8 nM

Question: And the TGI (786-0 renal)?
Answer: 17.8 µM

Question: And the GI50 (MCF7 breast)?
Answer: 36.6 nM

Question: What about the TGI (MCF7 breast) of the same compound?
Answer: 19.5 µM

Question: What about the GI50 (SF-295 CNS) of the same compound?
Answer: 37.2 nM

Question: And the TGI (SF-295 CNS)?
Answer: 14.6 µM

Reference: PubChem BioAssay (NCI)
